Reference: article PMC12723682, “Ligand-Directed Self-Assembling Chimeras for Targeted Protein O‑GlcNAcylation” (ACS Chemical Biology, 2025)

How the values were obtained:
[1] = molecular target: T1, O-GlcNAc transferase (OGT) (Homo sapiens, UniProt O15294); assay: SPR steady-state affinity on immobilized OGT; also in-gel covalent labelling of purified OGT, competed by OSMI-4; assay type: binding
T1 sequence (O15294 2-1046): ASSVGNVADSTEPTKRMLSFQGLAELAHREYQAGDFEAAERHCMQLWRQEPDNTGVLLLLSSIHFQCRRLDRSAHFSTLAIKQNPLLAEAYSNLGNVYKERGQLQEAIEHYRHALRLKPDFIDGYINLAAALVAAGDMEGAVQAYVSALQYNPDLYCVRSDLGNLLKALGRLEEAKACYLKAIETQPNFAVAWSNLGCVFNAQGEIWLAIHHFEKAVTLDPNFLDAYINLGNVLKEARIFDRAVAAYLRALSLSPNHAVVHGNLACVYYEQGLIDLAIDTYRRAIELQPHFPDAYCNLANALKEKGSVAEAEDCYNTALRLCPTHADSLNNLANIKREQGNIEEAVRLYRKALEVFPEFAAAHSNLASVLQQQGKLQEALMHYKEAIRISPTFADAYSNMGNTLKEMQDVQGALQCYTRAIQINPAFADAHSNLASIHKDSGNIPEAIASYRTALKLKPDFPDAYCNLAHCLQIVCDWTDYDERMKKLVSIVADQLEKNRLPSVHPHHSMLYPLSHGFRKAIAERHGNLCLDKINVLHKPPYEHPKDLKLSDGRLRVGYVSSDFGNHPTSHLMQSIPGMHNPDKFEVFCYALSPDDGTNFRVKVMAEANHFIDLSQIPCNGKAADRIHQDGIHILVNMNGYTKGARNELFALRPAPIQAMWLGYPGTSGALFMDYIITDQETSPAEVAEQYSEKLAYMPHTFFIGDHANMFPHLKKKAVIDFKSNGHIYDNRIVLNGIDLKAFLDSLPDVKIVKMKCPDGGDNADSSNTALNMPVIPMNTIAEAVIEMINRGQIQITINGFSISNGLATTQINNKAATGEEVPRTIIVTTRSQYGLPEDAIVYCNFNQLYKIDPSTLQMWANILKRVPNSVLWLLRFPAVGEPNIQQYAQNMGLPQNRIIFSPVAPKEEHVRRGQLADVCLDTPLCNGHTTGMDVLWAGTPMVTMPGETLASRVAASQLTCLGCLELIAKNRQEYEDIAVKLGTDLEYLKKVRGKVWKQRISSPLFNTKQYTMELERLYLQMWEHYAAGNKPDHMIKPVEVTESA

[2] = molecular target: T1, O-GlcNAc transferase (OGT); assay: SPR, confirmed by MST; also in-gel covalent labelling of purified OGT, competed by OSMI-4; assay type: binding

Kd [1] [µM] | Kd [2] [µM] | SMILES
2 | – | C#CCCCCC(=O)N(CC#N)S(=O)(=O)c1cc2ccc(=O)[nH]c2cc1Cl [7a]
– | 28.3 | C#CCCCCC(=O)N(CC#N)S(=O)(=O)c1ccc2[nH]c(=O)ccc2c1 [8a]
